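The compound was tested at five concentrations on cells cultured in 96-well plates, with a 48-hour exposure period. Here, GI50 denotes the concentration required for 50% inhibition of growth.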 Active and inactive are the calls of the source. Rule as the data show it: active = GI50 up to about 1.1 µM and inactive = higher.
Key:
Assay in all cases: growth of human tumour cells (NCI), 48 h
NCI-H23 = tested on: NCI-H23
LOX IMVI = tested on: LOX IMVI
SK-MEL-5 = tested on: SK-MEL-5
SF-268 = tested on: SF-268
HOP-62 = tested on: HOP-62
HCC 2998 = tested on: HCC 2998
786-0 = tested on: 786-0
UACC-257 = tested on: UACC-257
SF-539 = tested on: SF-539
HL-60 = tested on: HL-60
M14 = tested on: M14
HT-29 = tested on: HT-29
MDA-N = tested on: MDA-N
HOP-92 = tested on: HOP-92
KM12 = tested on: KM12
MDA-MB-435 = tested on: MDA-MB-435
TK-10 = tested on: TK-10
SK-OV-3 = tested on: SK-OV-3
RPMI-8226 = tested on: RPMI-8226
SK-MEL-2 = tested on: SK-MEL-2

| SMILES | GI50 (NCI-H23) | GI50 (LOX IMVI) | GI50 (SK-MEL-5) | GI50 (SF-268) | GI50 (HOP-62) | GI50 (HCC 2998) | GI50 (786-0) | GI50 (UACC-257) | GI50 (SF-539) | GI50 (HL-60) | GI50 (M14) | GI50 (HT-29) | GI50 (MDA-N) | GI50 (HOP-92) | GI50 (KM12) | GI50 (MDA-MB-435) | GI50 (TK-10) | GI50 (SK-OV-3) | GI50 (RPMI-8226) | GI50 (SK-MEL-2) |
| --- | --- | --- | --- | --- | --- | --- | --- | --- | --- | --- | --- | --- | --- | --- | --- | --- | --- | --- | --- | --- |
| CC(C)(C)OC(=O)NCCCC(=O)NC1(c2cc3ccccc3s2)CCCCC1 | 27.2 µM (inactive) | 16 µM (inactive) | 5.89 µM (inactive) | 17.9 µM (inactive) | 21.4 µM (inactive) | 21.6 µM (inactive) | 16.9 µM (inactive) | 13.6 µM (inactive) | 15.5 µM (inactive) | 6.76 µM (inactive) | 18 µM (inactive) | 13.1 µM (inactive) | 15.8 µM (inactive) | 12.9 µM (inactive) | 17 µM (inactive) | 15.4 µM (inactive) | 29 µM (inactive) | 29.6 µM (inactive) | 11.7 µM (inactive) | – |
| O=[N+]([O-])c1cc2oc(CSc3ccccc3)nc2cc1Cl | 26.7 µM (inactive) | 35.3 µM (inactive) | 16.6 µM (inactive) | 58.7 µM (inactive) | 41.7 µM (inactive) | 23.5 µM (inactive) | 34.6 µM (inactive) | 28.6 µM (inactive) | 32.7 µM (inactive) | 30.3 µM (inactive) | 32.9 µM (inactive) | 28.1 µM (inactive) | 35 µM (inactive) | 26.6 µM (inactive) | 32 µM (inactive) | 32.4 µM (inactive) | 35.8 µM (inactive) | 29.5 µM (inactive) | 40.9 µM (inactive) | 26 µM (inactive) |
| CC1CCC2C(C)C3C(CC4C5CC=C6CC(OC7OC(CO)C(O)C(OC8OC(CO)C(O)C(O)C8O)C7OC7OC(C)C(O)C(O)C7O)CCC6(C)C5CCC43C)N2C1 (centres undefined) | 14.7 µM (inactive) | 15 µM (inactive) | 18.1 µM (inactive) | 15.9 µM (inactive) | 17.3 µM (inactive) | 18.1 µM (inactive) | 9.42 µM (inactive) | 16.1 µM (inactive) | 8.83 µM (inactive) | 8.24 µM (inactive) | 4.67 µM (inactive) | 12 µM (inactive) | 10.7 µM (inactive) | 17.5 µM (inactive) | 14.8 µM (inactive) | 9.12 µM (inactive) | 16.3 µM (inactive) | 16 µM (inactive) | 19.9 µM (inactive) | 19.5 µM (inactive) |
| CC(=N\N=C\c1ccccn1)/C(C)=N/N=C/c1ccccn1 | > 100 µM (inactive) | > 100 µM (inactive) | 98.4 µM (inactive) | > 100 µM (inactive) | > 100 µM (inactive) | > 100 µM (inactive) | > 100 µM (inactive) | > 100 µM (inactive) | > 100 µM (inactive) | > 100 µM (inactive) | > 100 µM (inactive) | > 100 µM (inactive) | 51.6 µM (inactive) | > 100 µM (inactive) | > 100 µM (inactive) | 42.9 µM (inactive) | > 100 µM (inactive) | > 100 µM (inactive) | > 100 µM (inactive) | > 100 µM (inactive) |
| C[n+]1c2ccccc2n2c3ccccc3c(NCCCN3CCOCC3)c(C#N)c21 | 1.29 µM (inactive) | 0.839 µM (active) | 2 µM (inactive) | 1.11 µM (active) | 1.27 µM (inactive) | 1.27 µM (inactive) | 1.04 µM (active) | 2.99 µM (inactive) | 0.556 µM (active) | 8.13 µM (inactive) | 2.4 µM (inactive) | 2.37 µM (inactive) | 1.04 µM (active) | 62.8 µM (inactive) | 1.61 µM (inactive) | 1.78 µM (inactive) | 1.58 µM (inactive) | 2.5 µM (inactive) | 0.726 µM (active) | 1.91 µM (inactive) |
| O=C(CC1(O)C(=O)Nc2c(Cl)ccc(Cl)c21)c1ccco1 (centres undefined) | 15.2 µM (inactive) | 10.9 µM (inactive) | 17.8 µM (inactive) | 25.4 µM (inactive) | 29.6 µM (inactive) | 33.5 µM (inactive) | 15.5 µM (inactive) | 18 µM (inactive) | 27.9 µM (inactive) | 14.7 µM (inactive) | 14.5 µM (inactive) | 22.4 µM (inactive) | 3.63 µM (inactive) | 22.3 µM (inactive) | 27 µM (inactive) | 1.85 µM (inactive) | > 53 µM (inactive) | 31.5 µM (inactive) | 16.8 µM (inactive) | 26.1 µM (inactive) |
| CC[C@@H](/C=C\CCC(=O)C[C@H](O)CCC=C(C)C)O[Si](C(C)C)(C(C)C)C(C)C | > 100 µM (inactive) | 90.8 µM (inactive) | 69 µM (inactive) | > 100 µM (inactive) | > 100 µM (inactive) | > 100 µM (inactive) | > 100 µM (inactive) | 85.1 µM (inactive) | > 100 µM (inactive) | 46 µM (inactive) | > 100 µM (inactive) | 52.6 µM (inactive) | 88.9 µM (inactive) | 81.7 µM (inactive) | > 100 µM (inactive) | > 100 µM (inactive) | > 100 µM (inactive) | > 100 µM (inactive) | 57.3 µM (inactive) | 42.9 µM (inactive) |

From ChEMBL document CHEMBL1201862, “PubChem BioAssay data set” (2004)
